This assay concerns Panel NCI-60 (60 carcinoma cell lines). The assay can be described thus: Growth inhibition of human panel NCI-60 (60 carcinoma cells) assessed as growth percent at 10 uM measured after 48 hrs by SRB assay relative to control. The assay is classed as functional. Conditions: read-out: Activity.

As for `Oc1cccc(-c2nc3sccn3c2-c2ccccc2)c1`, the growth at 10 µM is 94%.

As to `CS(=O)(=O)c1nccc(-c2c(-c3cccc(O)c3)nc3occn23)n1`, the growth at 10 µM was 102%.

Turning to `CS(=O)(=O)c1cccc(-c2c(-c3cccc(OCC(=O)c4ccccc4)c3)nc3sccn23)c1`, the growth at 10 µM was 91%.

Regarding `O=C(COc1cccc(-c2nc3sccn3c2-c2ccccc2)c1)c1ccccc1`, the growth at 10 µM amounted to 84.6%.

Consider `CS(=O)(=O)c1nccc(-c2c(-c3cccc(OCc4ccccc4)c3)nc3occn23)n1`, for which the growth at 10 µM was 101%.

The record behind these values is ChEMBL document CHEMBL4831500, “Discovery of first-in-class imidazothiazole-based potent and selective ErbB4 (HER4) kinase inhibitors” (Eur J Med Chem, 2021).
